Assay results taken from paper PMC10004634 (PLOS ONE, 2023).
Where two headings read alike, the source gives them in different places.

How the values were obtained:
Experiment in all cases: biochemical
Design in all cases: KINOMEscan scanMAX competition binding, DNA-tagged kinases, qPCR read-out, percent control at 300 nM
[1] = biological target: CDK2 (Homo sapiens, UniProt P24941)
[2] = biological target: EPHA2 (Homo sapiens, UniProt P29317)
[3] = biological target: HIPK3 (Homo sapiens, UniProt Q9H422)
Sequence of HIPK3 (Q9H422 whole entry): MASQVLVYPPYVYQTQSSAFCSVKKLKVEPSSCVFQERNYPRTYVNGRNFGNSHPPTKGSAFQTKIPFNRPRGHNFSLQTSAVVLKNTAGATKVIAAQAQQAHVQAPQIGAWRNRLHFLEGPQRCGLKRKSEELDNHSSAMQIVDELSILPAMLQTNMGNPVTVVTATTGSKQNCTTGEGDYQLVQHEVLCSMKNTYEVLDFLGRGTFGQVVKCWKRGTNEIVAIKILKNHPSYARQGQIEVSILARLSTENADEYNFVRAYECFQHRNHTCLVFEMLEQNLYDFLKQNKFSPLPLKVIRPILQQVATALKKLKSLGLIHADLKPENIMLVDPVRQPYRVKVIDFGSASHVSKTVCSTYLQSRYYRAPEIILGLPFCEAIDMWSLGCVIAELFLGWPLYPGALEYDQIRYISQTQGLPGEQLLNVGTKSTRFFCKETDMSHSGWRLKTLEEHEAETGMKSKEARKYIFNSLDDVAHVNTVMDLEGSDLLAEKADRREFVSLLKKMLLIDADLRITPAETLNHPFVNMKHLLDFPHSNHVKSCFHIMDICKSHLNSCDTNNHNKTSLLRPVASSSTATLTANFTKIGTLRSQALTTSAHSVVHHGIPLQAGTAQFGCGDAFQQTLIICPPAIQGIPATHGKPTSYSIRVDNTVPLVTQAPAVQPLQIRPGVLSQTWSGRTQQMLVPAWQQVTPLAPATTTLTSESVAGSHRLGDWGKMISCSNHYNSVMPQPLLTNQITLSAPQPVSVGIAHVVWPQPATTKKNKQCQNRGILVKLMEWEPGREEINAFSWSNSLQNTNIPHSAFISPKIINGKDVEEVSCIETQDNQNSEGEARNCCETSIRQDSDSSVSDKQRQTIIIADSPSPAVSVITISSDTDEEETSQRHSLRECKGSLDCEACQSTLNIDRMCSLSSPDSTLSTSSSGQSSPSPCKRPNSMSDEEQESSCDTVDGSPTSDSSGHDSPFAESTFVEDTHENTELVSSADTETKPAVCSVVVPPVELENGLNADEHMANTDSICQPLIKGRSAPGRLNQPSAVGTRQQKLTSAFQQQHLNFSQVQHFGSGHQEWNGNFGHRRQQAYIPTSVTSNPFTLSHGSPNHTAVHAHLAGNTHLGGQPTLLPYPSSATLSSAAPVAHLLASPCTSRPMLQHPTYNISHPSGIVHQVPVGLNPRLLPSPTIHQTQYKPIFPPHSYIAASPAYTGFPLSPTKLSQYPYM

[4] = biological target: KIT(D816V) (Homo sapiens, UniProt P10721, D816V)
Sequence of KIT(D816V) (P10721 whole entry D816V): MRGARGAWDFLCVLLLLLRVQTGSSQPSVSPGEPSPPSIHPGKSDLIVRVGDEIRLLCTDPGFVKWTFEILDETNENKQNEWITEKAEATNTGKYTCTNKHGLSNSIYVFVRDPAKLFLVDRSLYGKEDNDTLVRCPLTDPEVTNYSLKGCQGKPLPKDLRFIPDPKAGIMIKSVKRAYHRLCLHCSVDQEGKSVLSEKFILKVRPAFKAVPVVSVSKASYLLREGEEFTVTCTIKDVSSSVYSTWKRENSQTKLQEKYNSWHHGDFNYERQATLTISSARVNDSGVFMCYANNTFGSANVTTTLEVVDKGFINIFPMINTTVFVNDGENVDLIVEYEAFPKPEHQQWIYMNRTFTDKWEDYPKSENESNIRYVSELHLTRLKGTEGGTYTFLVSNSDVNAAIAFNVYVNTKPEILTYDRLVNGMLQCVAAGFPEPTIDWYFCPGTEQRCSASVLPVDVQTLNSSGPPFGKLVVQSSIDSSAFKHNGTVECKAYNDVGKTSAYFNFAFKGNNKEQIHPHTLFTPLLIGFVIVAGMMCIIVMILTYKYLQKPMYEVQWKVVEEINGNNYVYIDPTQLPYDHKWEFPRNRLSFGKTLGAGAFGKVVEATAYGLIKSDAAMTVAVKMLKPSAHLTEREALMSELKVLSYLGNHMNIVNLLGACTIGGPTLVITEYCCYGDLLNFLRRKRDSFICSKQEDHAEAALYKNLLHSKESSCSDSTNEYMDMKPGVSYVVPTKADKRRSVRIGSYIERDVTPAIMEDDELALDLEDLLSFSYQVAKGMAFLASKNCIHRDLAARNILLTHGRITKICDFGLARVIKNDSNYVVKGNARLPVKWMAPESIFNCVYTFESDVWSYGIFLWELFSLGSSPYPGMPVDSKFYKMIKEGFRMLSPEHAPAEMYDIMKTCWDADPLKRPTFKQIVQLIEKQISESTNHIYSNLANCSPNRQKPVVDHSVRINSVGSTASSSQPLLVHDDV

[5] = biological target: T1, NEK2 (Homo sapiens, UniProt P51955)
T1 sequence (P51955 1-445): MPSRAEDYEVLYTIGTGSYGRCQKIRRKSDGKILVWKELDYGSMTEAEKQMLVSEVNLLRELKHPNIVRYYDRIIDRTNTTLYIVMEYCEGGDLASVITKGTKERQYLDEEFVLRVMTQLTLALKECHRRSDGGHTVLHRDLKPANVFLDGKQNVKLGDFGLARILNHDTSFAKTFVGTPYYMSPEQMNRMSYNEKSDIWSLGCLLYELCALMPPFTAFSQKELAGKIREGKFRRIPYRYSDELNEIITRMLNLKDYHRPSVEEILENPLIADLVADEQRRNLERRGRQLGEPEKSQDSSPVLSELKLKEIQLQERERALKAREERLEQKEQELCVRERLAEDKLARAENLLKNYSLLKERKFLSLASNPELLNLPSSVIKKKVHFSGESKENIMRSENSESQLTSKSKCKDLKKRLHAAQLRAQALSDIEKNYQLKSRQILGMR

[6] = biological target: PIK3CA(E545K) (Homo sapiens, UniProt P42336, E545K)
[7] = biological target: PRKCD (Homo sapiens, UniProt Q05655)
Sequence of PRKCD (Q05655 whole entry): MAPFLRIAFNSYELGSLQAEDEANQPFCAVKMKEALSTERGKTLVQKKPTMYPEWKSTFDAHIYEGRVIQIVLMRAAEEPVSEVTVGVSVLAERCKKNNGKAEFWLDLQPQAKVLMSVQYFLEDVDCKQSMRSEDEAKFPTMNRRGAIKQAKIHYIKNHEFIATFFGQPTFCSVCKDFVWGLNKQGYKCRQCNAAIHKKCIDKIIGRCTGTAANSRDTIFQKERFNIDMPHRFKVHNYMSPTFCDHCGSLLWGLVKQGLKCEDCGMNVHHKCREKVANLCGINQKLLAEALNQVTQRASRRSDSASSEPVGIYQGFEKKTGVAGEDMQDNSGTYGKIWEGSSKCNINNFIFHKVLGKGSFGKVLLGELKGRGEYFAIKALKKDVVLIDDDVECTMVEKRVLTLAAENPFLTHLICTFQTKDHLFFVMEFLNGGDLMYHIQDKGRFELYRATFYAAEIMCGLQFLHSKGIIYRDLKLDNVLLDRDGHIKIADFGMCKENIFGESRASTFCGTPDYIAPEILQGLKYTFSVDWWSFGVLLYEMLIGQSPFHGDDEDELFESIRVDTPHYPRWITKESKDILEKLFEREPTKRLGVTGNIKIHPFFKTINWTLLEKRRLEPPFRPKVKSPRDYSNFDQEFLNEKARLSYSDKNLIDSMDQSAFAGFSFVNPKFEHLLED

[8] = biological target: T2, PRP4 (Homo sapiens, UniProt Q13523)
T2 construct: gene PRPF4B

[9] = biological target: SBK1 (Homo sapiens, UniProt Q52WX2)
Sequence of SBK1 (Q52WX2 whole entry): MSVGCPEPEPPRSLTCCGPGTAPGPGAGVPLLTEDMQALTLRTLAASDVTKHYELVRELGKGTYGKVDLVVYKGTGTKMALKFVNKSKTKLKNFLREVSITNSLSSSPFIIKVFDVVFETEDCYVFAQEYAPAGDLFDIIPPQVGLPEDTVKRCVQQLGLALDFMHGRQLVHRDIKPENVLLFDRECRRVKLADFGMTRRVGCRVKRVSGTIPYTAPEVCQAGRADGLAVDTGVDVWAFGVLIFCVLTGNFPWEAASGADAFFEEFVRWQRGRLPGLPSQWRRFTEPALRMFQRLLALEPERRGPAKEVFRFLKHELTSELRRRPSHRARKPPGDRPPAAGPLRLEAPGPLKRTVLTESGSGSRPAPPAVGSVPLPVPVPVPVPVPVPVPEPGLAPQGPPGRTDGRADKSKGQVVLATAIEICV

[10] = biological target: T3, TTK (Homo sapiens, UniProt P33981)
T3 sequence (P33981 1-857): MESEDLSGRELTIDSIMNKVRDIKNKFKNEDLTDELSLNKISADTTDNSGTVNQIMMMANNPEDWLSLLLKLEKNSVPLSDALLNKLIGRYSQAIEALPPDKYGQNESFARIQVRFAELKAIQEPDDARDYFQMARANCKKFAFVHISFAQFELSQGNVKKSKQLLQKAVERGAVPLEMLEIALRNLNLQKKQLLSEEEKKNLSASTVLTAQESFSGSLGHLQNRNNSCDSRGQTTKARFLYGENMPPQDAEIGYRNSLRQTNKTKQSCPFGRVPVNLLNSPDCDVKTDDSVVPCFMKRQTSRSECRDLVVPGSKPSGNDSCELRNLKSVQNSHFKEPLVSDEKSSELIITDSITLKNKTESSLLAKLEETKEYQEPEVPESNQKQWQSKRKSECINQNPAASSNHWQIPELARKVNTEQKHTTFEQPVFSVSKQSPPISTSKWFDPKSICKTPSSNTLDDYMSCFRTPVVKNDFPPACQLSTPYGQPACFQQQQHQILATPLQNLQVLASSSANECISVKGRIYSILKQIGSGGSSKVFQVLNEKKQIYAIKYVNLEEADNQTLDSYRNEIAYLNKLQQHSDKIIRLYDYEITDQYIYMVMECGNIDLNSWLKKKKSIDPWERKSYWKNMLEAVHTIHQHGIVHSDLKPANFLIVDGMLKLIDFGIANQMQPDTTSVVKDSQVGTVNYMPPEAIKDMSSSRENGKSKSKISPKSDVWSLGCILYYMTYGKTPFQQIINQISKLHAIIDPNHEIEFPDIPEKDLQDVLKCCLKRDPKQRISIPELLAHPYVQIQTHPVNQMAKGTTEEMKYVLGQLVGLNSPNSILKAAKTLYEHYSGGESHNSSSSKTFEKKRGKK

[11] = read-out: Percent control / Tirabrutinib
[12] = read-out: Percent control / Zanubrutinib
[13] = read-out: Percent control / Acalabrutinib
[14] = read-out: Percent control / Ibrutinib

Sequence of EPHA2 (P29317 whole entry): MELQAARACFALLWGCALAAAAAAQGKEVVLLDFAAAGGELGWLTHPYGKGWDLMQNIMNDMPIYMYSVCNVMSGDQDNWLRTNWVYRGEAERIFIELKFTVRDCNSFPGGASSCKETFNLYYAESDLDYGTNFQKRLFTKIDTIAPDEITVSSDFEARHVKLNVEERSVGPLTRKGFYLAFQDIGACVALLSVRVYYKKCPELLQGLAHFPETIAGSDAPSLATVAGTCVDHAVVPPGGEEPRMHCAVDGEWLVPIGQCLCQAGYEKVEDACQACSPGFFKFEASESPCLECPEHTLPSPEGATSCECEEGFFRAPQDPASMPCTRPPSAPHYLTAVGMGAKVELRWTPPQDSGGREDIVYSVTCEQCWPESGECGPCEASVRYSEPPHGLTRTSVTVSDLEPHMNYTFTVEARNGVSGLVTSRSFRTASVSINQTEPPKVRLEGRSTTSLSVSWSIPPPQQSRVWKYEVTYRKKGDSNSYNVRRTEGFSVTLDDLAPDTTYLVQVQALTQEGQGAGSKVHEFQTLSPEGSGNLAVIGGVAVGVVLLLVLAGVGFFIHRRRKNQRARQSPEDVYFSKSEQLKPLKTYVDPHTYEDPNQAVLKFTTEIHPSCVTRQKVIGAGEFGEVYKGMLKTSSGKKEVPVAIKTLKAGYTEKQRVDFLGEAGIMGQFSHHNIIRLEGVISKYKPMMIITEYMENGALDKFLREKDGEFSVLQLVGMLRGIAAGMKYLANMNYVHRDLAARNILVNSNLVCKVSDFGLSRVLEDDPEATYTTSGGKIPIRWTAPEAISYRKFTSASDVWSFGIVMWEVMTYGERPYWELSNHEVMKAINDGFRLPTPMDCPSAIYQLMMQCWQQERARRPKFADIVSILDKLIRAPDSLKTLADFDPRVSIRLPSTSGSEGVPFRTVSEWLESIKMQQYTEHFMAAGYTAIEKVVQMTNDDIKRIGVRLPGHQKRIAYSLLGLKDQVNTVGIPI

CC#CC(=O)N1CC[C@@H](n2c(=O)n(-c3ccc(Oc4ccccc4)cc3)c3c(N)ncnc32)C1 [Tirabrutinib]
remaining binding at 0.3 µM [1, 11]: 82%
remaining binding at 0.3 µM [2, 11]: 93%
remaining binding at 0.3 µM [3, 11]: 78%
remaining binding at 0.3 µM [4, 11]: 93%
remaining binding at 0.3 µM [5, 11]: 93%
remaining binding at 0.3 µM [6, 11]: 78%
remaining binding at 0.3 µM [7, 11]: 90%
remaining binding at 0.3 µM [8, 11]: 99%
remaining binding at 0.3 µM [9, 11]: 53%

C=CC(=O)N1CCC([C@@H]2CCNc3c(C(N)=O)c(-c4ccc(Oc5ccccc5)cc4)nn32)CC1 [Zanubrutinib]
remaining binding at 0.3 µM [1, 12]: 99%
remaining binding at 0.3 µM [2, 12]: 67%
remaining binding at 0.3 µM [3, 12]: 97%
remaining binding at 0.3 µM [4, 12]: 98%
remaining binding at 0.3 µM [5, 12]: 90%
remaining binding at 0.3 µM [7, 12]: 83%
remaining binding at 0.3 µM [8, 12]: 100%
remaining binding at 0.3 µM [9, 12]: 94%
remaining binding at 0.3 µM [10, 12]: 94%

CC#CC(=O)N1CCC[C@H]1c1nc(-c2ccc(C(=O)Nc3ccccn3)cc2)c2c(N)nccn12 [Acalabrutinib]
remaining binding at 0.3 µM [1, 13]: 86%
remaining binding at 0.3 µM [2, 13]: 94%
remaining binding at 0.3 µM [3, 13]: 99%
remaining binding at 0.3 µM [4, 13]: 92%
remaining binding at 0.3 µM [5, 13]: 95%
remaining binding at 0.3 µM [6, 13]: 99%
remaining binding at 0.3 µM [9, 13]: 91%
remaining binding at 0.3 µM [10, 13]: 64%

C=CC(=O)N1CCC[C@@H](n2nc(-c3ccc(Oc4ccccc4)cc3)c3c(N)ncnc32)C1 [Ibrutinib]
remaining binding at 0.3 µM [3, 14]: 51%
remaining binding at 0.3 µM [5, 14]: 84%
remaining binding at 0.3 µM [6, 14]: 75%
remaining binding at 0.3 µM [7, 14]: 90%
remaining binding at 0.3 µM [8, 14]: 96%
remaining binding at 0.3 µM [9, 14]: 47%
remaining binding at 0.3 µM [10, 14]: 93%
